Experimental data: PubChem BioAssay (NCI)
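Where inhibition never reached the appropriate level, the endpoint shown equals the highest concentration tested. Otherwise, values were interpolated linearly from a five-concentration, 48-hour dose response in 96-well plates. TGI marks complete inhibition of growth.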

How the values were obtained:
P388/ADR leukemia = experiment: NCI tumour cell line growth inhibition, 48 h
LXFL 529 NSCLC = experiment: NCI tumour cell line growth inhibition, 48 h

Compound	TGI (P388/ADR leukemia) [µM]	TGI (LXFL 529 NSCLC) [µM]
NCC(Cl)C(O)c1cnc(N)[nH]1 (centres undefined)	10.1	
CC(C)=CCc1c(O)cc(O)c2c1OC(c1ccc(O)cc1)C(O)C2=O (centres undefined)		86.9
Cc1[nH]c(=O)[nH]c(=O)c1/C=C/C(=O)NC(CO)CC(C)C (centres undefined)	> 149	
CCC1CN2CCc3cc(OC)c(OC)cc3C2CC1CC1c2cc(OC)c(OC)cc2CCN1C(=O)C(N)Cc1ccccc1 (centres undefined)		11.6
